Assay [1] deals with pEGFR (Tyr1068) in PC-9 cells (Ex19Del) (Homo sapiens (Human), UniProt P00533, DEL746-750). As to the kind of experiment: PC-9 pEGFR AlphaLISA assay. As to conditions: 4 hours incubation, p-EGFR (Tyr1068) AlphaLISA, read-out: Ext pEGFR_PC-9 Ex19Del IC50. Type of assay: cell-based. Summed up:
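Cells seeded in phenol-free DMEM with 10% FBS adhered overnight at 37° C./5% CO2, then were exposed for 4 hours to a 4-fold, 10-point compound dilution series. After lysis, phospho-EGFR was read by AlphaLISA SureFire Ultra, and IC50 was fitted from percent inhibition versus log concentration.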

Another assay deals with EGFR (d746-750) (Homo sapiens (Human), UniProt P00533, DEL746-750). The experiment in a line: Biochemical EGFR inhibition assay, EGFR (d746-750). As to conditions: Caliper mobility shift; 1.0 mM ATP or ATP Km; read-out: Enz EGFR_Exon19-del746-750 IC50.
Chain of EGFR (d746-750) (P00533 other isoform, or with tags, fused parts or gaps del 1-694/del 746-750 limits assumed): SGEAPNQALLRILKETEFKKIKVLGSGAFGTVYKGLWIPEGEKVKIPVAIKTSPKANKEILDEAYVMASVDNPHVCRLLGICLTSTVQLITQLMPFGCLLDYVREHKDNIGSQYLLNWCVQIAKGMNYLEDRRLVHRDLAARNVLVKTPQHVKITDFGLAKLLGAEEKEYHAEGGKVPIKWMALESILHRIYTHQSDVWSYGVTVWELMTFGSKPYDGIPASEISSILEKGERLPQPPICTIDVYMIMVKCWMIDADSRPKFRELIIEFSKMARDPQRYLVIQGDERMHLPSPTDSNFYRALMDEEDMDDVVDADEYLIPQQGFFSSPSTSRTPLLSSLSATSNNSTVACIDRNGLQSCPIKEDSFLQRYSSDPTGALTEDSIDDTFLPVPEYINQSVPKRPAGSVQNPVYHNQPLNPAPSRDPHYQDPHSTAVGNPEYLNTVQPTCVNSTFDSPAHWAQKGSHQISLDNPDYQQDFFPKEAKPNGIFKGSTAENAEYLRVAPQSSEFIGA
A further assay concerns the target EGFR L858R (Homo sapiens (Human), UniProt P00533, L858R). As to the kind of experiment: Biochemical EGFR inhibition assay, EGFR L858R. As to conditions: Caliper mobility shift; 1.0 mM ATP or ATP Km; read-out: Enz EGFR_L858R IC50.

Chain of pEGFR (Tyr1068) in PC-9 cells (Ex19Del) (P00533 other isoform, or with tags, fused parts or gaps del 746-750): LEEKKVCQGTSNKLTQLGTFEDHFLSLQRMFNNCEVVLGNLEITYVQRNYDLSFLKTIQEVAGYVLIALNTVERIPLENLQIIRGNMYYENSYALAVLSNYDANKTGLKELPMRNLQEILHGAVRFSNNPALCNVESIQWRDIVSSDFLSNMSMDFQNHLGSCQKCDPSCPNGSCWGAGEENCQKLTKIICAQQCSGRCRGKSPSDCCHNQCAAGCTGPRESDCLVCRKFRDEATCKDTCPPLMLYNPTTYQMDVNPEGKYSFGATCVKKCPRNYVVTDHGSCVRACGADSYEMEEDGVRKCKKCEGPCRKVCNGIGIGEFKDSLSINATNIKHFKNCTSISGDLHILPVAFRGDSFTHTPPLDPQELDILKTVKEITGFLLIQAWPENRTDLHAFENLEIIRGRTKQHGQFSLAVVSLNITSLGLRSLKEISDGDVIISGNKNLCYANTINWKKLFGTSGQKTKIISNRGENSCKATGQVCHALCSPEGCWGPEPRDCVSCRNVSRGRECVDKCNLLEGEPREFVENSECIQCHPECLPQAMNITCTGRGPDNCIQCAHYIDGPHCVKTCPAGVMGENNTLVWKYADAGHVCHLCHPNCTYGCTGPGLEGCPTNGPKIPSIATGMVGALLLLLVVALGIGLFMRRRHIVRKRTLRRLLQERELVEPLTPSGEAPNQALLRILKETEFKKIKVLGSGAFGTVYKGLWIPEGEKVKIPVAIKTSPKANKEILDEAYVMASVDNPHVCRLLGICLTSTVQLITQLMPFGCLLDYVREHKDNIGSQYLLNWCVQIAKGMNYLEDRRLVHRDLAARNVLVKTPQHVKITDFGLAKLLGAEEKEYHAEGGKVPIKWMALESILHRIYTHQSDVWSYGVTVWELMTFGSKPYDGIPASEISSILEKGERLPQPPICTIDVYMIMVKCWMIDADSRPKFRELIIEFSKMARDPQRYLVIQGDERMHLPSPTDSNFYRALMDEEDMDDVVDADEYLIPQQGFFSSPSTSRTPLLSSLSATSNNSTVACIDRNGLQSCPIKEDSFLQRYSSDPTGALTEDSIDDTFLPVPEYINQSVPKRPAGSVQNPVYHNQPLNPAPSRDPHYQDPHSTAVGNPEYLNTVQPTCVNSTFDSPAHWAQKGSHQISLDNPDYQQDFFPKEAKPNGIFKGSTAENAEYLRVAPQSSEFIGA
Chain of EGFR L858R (P00533 25-1210 L858R): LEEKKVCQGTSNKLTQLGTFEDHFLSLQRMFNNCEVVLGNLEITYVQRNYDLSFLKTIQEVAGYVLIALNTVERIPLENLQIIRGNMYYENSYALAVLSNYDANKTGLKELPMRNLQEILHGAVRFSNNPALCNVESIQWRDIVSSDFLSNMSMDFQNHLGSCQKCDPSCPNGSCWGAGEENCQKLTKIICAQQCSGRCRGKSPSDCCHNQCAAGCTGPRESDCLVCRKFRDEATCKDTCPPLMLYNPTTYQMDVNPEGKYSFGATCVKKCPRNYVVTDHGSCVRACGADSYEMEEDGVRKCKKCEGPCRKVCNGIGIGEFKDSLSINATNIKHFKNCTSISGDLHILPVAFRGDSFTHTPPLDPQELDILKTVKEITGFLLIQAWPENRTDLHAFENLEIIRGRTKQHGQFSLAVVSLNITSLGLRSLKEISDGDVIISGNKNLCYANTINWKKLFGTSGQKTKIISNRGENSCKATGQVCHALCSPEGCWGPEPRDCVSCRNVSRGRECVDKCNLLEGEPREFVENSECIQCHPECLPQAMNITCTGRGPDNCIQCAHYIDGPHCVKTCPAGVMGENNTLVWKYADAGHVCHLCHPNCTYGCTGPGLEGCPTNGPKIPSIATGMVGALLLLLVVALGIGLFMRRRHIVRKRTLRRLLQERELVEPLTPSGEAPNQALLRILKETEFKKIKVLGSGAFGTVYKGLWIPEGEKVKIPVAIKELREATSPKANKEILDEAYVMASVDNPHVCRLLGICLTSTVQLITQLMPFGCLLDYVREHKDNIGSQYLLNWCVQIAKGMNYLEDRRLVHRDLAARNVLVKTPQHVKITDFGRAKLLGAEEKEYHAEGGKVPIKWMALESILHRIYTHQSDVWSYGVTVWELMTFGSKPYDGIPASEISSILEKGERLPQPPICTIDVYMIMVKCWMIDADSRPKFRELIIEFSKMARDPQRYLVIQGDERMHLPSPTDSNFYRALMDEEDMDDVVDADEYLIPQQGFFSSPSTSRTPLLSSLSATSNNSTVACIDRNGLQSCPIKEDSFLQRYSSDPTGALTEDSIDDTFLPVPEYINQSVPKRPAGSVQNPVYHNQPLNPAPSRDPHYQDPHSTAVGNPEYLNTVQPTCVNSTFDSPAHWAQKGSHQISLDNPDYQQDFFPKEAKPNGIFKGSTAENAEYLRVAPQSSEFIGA

Regarding `COc1cc2ncnc(-c3cn(C)nc3-c3ccccc3)c2cc1NC(=O)[C@H]1CCCN1C` (single isomer, unassigned) [Example 242, (R)—N-(7-methoxy-4-(1-methyl-3-phenyl-1H-pyrazol-4-yl)quinazolin-6-yl)-1-methylpyrrolidine-2-carboxamide or (S)—N-(7-methoxy-4-(1-methyl-3-phenyl-1H-pyrazol-4-yl)quinazolin-6-yl)-1-methylpyrrolidine-2-carboxamide], the IC50 (as a rule, the concentration that inhibits the measured activity by half) in assay [1] is 6.6 nM; at EGFR (d746-750), 2.1 nM; on EGFR L858R, 7 nM.

With `COc1cc2ncnc(-c3cn(C)nc3-c3ccccc3)c2cc1NC(=O)[C@@H]1CCCN1C` (single isomer, unassigned) [Example 243, (R)—N-(7-methoxy-4-(1-methyl-3-phenyl-1H-pyrazol-4-yl)quinazolin-6-yl)-1-methylpyrrolidine-2-carboxamide or (S)—N-(7-methoxy-4-(1-methyl-3-phenyl-1H-pyrazol-4-yl)quinazolin-6-yl)-1-methylpyrrolidine-2-carboxamide], the IC50 in assay [1] stood at 4.4 nM; on EGFR (d746-750) it was 2.4 nM; at EGFR L858R, 4.9 nM.

For `COc1cc2ncnc(-c3cn(C)nc3-c3ccccc3)c2cc1NC(=O)[C@H](C)F` (single isomer, unassigned) [Example 244, (S)-2-fluoro-N-(7-methoxy-4-(1-methyl-3-phenyl-1H-pyrazol-4-yl)quinazolin-6-yl) propenamide or (R)-2-fluoro-N-(7-methoxy-4-(1-methyl-3-phenyl-1H-pyrazol-4-yl)quinazolin-6-yl) propenamide], the IC50 was determined as 2.3 nM in assay [1], 1.3 nM on EGFR (d746-750) and 2.2 nM at EGFR L858R.

In the case of `COc1cc2ncnc(-c3cn(C)nc3-c3ccccc3)c2cc1NC(=O)[C@@H](C)F` (single isomer, unassigned) [Example 245, (R)-2-fluoro-N-(7-methoxy-4-(1-methyl-3-phenyl-1H-pyrazol-4-yl)quinazolin-6-yl) propenamide or (S)-2-fluoro-N-(7-methoxy-4-(1-methyl-3-phenyl-1H-pyrazol-4-yl)quinazolin-6-yl) propenamide], the figures for the IC50 (in assay [1]; at EGFR (d746-750); at EGFR L858R) were 2.6 nM, 1 nM and 1.9 nM, respectively.

With `COc1cc2ncnc(-c3cn(C)nc3-c3ccccc3)c2cc1NC(=O)[C@H]1CCN1C` (single isomer, unassigned) [Example 253, (R)—N-(7-methoxy-4-(1-methyl-3-phenyl-1H-pyrazol-4-yl)quinazolin-6-yl)-1-methylazetidine-2-carboxamide or (S)—N-(7-methoxy-4-(1-methyl-3-phenyl-1H-pyrazol-4-yl)quinazolin-6-yl)-1-methylazetidine-2-carboxamide], the half-inhibitory concentration (IC50) in assay [1] was 3.9 nM; on EGFR (d746-750), 1.9 nM; at EGFR L858R, 2.4 nM.

As to `COc1cc2ncnc(-c3cn(C)nc3-c3ccccc3F)c2cc1NC(=O)[C@@]12C[C@@H]1CN(C)C2` (single isomer, unassigned) [Example 254, (1S,5S)—N-(4-(3-(2-fluorophenyl)-1-methyl-1H-pyrazol-4-yl)-7-methoxyquinazolin-6-yl)-3-methyl-3-azabicyclo[3.1.0]hexane-1-carboxamide or (1R,5R)—N-(4-(3-(2-fluorophenyl)-1-methyl-1H-pyrazol-4-yl)-7-methoxyquinazolin-6-yl)-3-methyl-3-azabicyclo[3.1.0]hexane-1-carboxamide], the IC50 worked out at 2.5 nM in assay [1], 0.8 nM on EGFR (d746-750) and 2.1 nM on EGFR L858R.

Source of the values: patent US20250236608A1, “EGFR INHIBITORS” (Blueprint Medicines Corporation, priority 2022, published 2025).
